# B1: Wnt3a: activator of the Wnt signaling pathway (protein, UniProt P56704 19-352, looked up)
# Protein Wnt-3a: SYPIWWSLAVGPQYSSLGSQPILCASIPGLVPKQLRFCRNYVEIMPSVAEGIKIGIQECQHQFRGRRWNCTTVHDSLAIFGPVLDKATRESAFVHAIASAGVAFAVTRSCAEGTAAICGCSSRHQGSPGKGWKWGGCSEDIEFGGMVSREFADARENRPDARSAMNRHNNEAGRQAIASHMHLKCKCHGLSGSCEVKTCWWSQPDFRAIGDFLKDKYDSASEMVVEKHRESRGWVETLRPRYTYFKVPTERDLVYYEASPNFCEPNPETGSFGTRDRTCNVSSHGIDGCDLLCCGRGHNARAERRREKCRCVFHWCCYVSCQECTRVYDVHTCK
# Columns and labels:
# [1] = test system: mice with acute myocardial infarction; test: Mouse model of acute myocardial infarction, change in left ventricular ejection fraction (echocardiography); format: in vivo, mouse (SCID beige); settings: 0.1 mg drug injected to heart; measured three weeks after surgery
# Method: Briefly, 8-week old male severe combined immunodeficient (SCID) beige mice were anesthetized with isoflurane. Following surgical preparation, a 2 cm vertical incision was performed in the midclavicular line for a lateral thoracotomy. The left anterior descending was ligated using 7-0 silk. Animals then received intramyocardial injections of injected at two peri-infarct sites with 10^5 cells (or phosphate buffered saline as a vehicle) in a total of 20 μl (10 μl/site). Echocardiography measurements were taken (to measure change left ventricular ejection fraction) at day 1 post and week 3 post infarction.
# Acute myocardial infarction was applied to the three-month-old male severe combined immunodeficient (SCID)—beige mice as previously described. 1×10^5 desired cells or 20 μl of 14 mM drug (BIO or JW67) or exosomes were injected to the SCID heart for rescuing.
# Echocardiography. Echocardiography study was performed in the SCID beige in 24 hr (baseline) and 3 weeks after surgery using Vevo 3100 or 770 Imaging System (Visual Sonics) as described^8. The average of the left ventricular ejection fraction was analyzed from multiple left ventricular end-diastolic and left ventricular end-systolic measurements.
# [2] = test system: β-catenin levels in immortalized CDCs; test: Total β-catenin ELISA in immortalized CDCs; format: cell-based, human; settings: SV40 T+t immortalized CDCs from Donor2; 5 μM BIO for 72 hours vs 0 μM
# Method: (§1) Cell lysate and protein assay. 4×10^5 cells were collected and pelleted at 1,000 rpm for 5 min at 4° C. Cell pellets were thoroughly mixed with 1× lysis buffer (Affymetrix eBioscience InstantOne ELISA kit) by vortexing and rotating for 10 min at room temperature. Protein lysate was isolated from the cell lysate mixture after centrifugation at 14,000 rpm for 15 min at 4° C. Protein concentration was determined by DC™ Protein Assay kit (Bio-Rad).
# (§2) ELISA. Protein collection and protein concentration determination were as described above. Total β-catenin ELISA was performed according the protocol described with final sample concentration of 0.01 mg/ml and positive control of 0.1 mg/ml (ThermoFisher eBioscience InstantOne™ ELISA).
# [3] = test system: β-catenin levels in kidney cortex cells; test: β-catenin levels in kidney cortex cells; format: cell-based; settings: FIG. 18B
# [4] = test system: CD90 expression in CDCs; test: Flow cytometry of CD90 expression in CDCs; format: cell-based, human
# Method: Referring to FIG. 2, CDCs from two donors (Donor1 and Donor12) were prepared as described herein. The attached CDCs were treated with 30 μM CHIR (Selleckchem, Cat. #S1263), a GSK3β inhibitor, or with no treatment for 72 hours. The cells were then collected, washed with 1% bovine serum albumin (BSA) in 1× phosphated-buffered saline (PBS), and stained with FITC Mouse Anti-Human CD90 (BD Biosciences, Cat. #555595). Flow cytometry was then conducted in BD FACSCanton™ II machine to measure CD90 expression in cells.
# (§3) Referring to FIG. 9B, CDCs from Donor 5 were treated with different concentrations of BIO (Sigma-Aldaich, Cat #B1685), a GSK3β inhibitor, for 72 hours. The cells were then collected and lysed with 1× lysis buffer supplied Total β-catenin ELISA (Affymetrix eBioscience InstantOne™ ELISA, Cat. #85-86141-11). Total β-catenin ELISA was performed as per manufacturer's instructions, except that 0.01 mg/mL final protein concentration was used in the assay.
# Flow cytometry. Cells were harvested and counted (2×10^5 cells per condition). Cells were washed with 1% bovine serum albumin (BSA) in 1× Phosphated-buffered saline (PBS), and stained with the appropriate antibody (BD Pharmingen) for 1 hr at 4° C. The cells were then washed again and resuspended in 1% BSA in 1×PBS. BD Cytofix/Cytoperm™ kit was used for cell permeabilization before staining, such as LRP5/6 staining. […]
# [5] = test system: β-catenin levels in explant-derived cells (EDCs); test: β-catenin ELISA in explant-derived cells (EDCs); format: cell-based, human; settings: EDCs from Donor1 and Donor12; BIO for 72 hours compared with sphere formation
# [6] = test system: β-catenin levels in CDCs; test: Total β-catenin ELISA in CDCs; format: cell-based, human
# Method: as §3
# Referring to FIG. 10, the effect of BIO (as measured by sustained β-catenin activation per ELISA) was measured in CDCs from Donor10. Zero hour is immediately drug wash-off time point following a 72 hour of 5 μM BIO treatment period.
# as §1, §2
# [7] = test system: CD90 expression in immortalized CDCs; test: Flow cytometry of CD90 expression in immortalized CDCs; format: cell-based, human; settings: Wnt3a for 72 hours, vs vehicle
# Method: Referring to FIG. 3-5, CDCs from immortalized Donor2 were plated on either fibronectin (FN; VWR, Cat. #356009)-coated or CellBIND® (CB)-coated flasks. Attached cells were treated with Wnt3a or with PBS vehicle (ddH2O) for 72 hours. The cells were then analyzed using flow cytometry for CD90 expression with the same protocol as described herein.
# Flow cytometry. Cells were harvested and counted (2×10^5 cells per condition). Cells were washed with 1% bovine serum albumin (BSA) in 1× Phosphated-buffered saline (PBS), and stained with the appropriate antibody (BD Pharmingen) for 1 hr at 4° C. The cells were then washed again and resuspended in 1% BSA in 1×PBS. BD Cytofix/Cytoperm™ kit was used for cell permeabilization before staining, such as LRP5/6 staining. The flow cytometry was performed in BD FACSCanto™ II machine.
molecule,measurement,setting,value
"O=C1Nc2cc(Br)ccc2/C1=C1/Nc2ccccc2/C1=N\O [BIO, 6-bromoindirubin-3′-oxime]",cardiac recovery (cardiac ejection fraction change),[1],improves cardiac recovery
same,β-catenin restoration,[2],successful β-catenin restoration
same,β-catenin levels,[3],further increases β-catenin levels
same,CD90 levels,"[4]; CDCs from Donor5, increasing BIO concentrations",decreasing CD90 levels with increasing BIO concentrations
same,β-catenin expression,[5],equal or better enhanced β-catenin expression
same,levels of β-catenin,"[6]; CDCs from Donor5, different concentrations of BIO for 72 hours",increased with increasing BIO concentration
same,time of peak β-catenin activation after drug washout,"[6]; CDCs from Donor10, after 72 hour 5 μM BIO treatment",24 h
same,duration of effect of BIO treatment after washout,"[6]; FIG. 10, β-catenin activation per ELISA",at least 24 hours
same,β-catenin restoration,"[6]; non-potent CDCs from Donor5, 10 μM BIO for 72 hours vs 0 μM",successful β-catenin restoration
same,β-catenin restoration,"[6]; non-potent CDCs from Donor6-2, 5 μM BIO for 72 hours vs control vehicle",successful β-catenin restoration
"Cc1cnc(-c2cnc(NCCNc3ccc(C#N)cn3)nc2-c2ccc(Cl)cc2Cl)[nH]1 [CHIR, 6-[[2-[[4-(2,4-Dichlorophenyl)-5-(5-methyl-1H-imidazol-2-yl)-2-pyrimidinyl]amino]ethyl]amino]-3-pyridinecarbonitrile]",CD90 levels,"[4]; 30 μM CHIR for 72 hours, CDCs from Donor1 and Donor12, vs no treatment",decreased the CD90 levels
"O=C1Nc2ccccc2C12OCC1(CO2)COC2(OC1)C(=O)Nc1ccccc12 (centres unmarked) [JW67, Trispiro[3H-indole-3,2′-[1,3]dioxane-5′5″-[1,3]dioxane-2″,3′″-[3H]indole]-2,2′″(1H,1′″H)-dione(9Cl)]",cardiac recovery (cardiac ejection fraction change),[1],improves cardiac recovery
B1,CD90 level,[7]; immortalized Donor2 CDCs on CellBIND (CB)-coated flasks,no such effect is observed
same,CD90 level,[7]; immortalized Donor2 CDCs on fibronectin (FN)-coated flasks,decreased the CD90 level

# Reference: patent US20210032598A1, “ACTIVATION-INDUCED TISSUE-EFFECTOR CELLS SUITABLE FOR CELL THERAPY AND EXTRACELLUAR VESICLES DERIVED THEREFROM” (Capricor, Inc., priority 2018, published 2021)
